Test results reported in ChEMBL document CHEMBL3885861, “Open TG-GATES”.

Species: Rattus norvegicus
Assay: Open TG-GATES - Regimen: Single
Format: toxicity, organism-based, Sprague-Dawley
Set-up: regimen Single, gender Male, age 6 weeks
Details: in vivo, po, 0 mg/kg, route gavage, dose level Control; for APTT / Bas / Eos / Fbg / Hb / Ht / Lym / MCH / MCHC / MCV / Mono / Neu / PT / Plat / RBC / Ret / WBC: tissue Blood; for KIDNEY_L / KIDNEY_R / KIDNEY_TOTAL: tissue Kidney; for LIVER: tissue Liver; for A/G / ALP / ALT / AST / BUN / CRE / Ca / Cl / DBIL / GLC / IP / K / LDH / Na / PL / RALB / TBIL / TC / TG / TP / gamma-GTP: tissue Plasma

`CCC1(c2ccccc2)C(=O)NC(=O)NC1=O` [PHENOBARBITAL] gave a TERMINAL_BW (3 h) of 221.7 g, an APTT (3 h) of 19.3 s and a Bas (3 h) of 0.4%. For the same compound, the Eos (3 h) was 1%, the Fbg (3 h) was 219.2 mg/dL and the Hb (3 h) was 13.6 g/dL. For the same compound, the Ht (3 h) was 37.5%, the Lym (3 h) was 72.8% and the MCH (3 h) was 21.7 pg. For the same compound, the MCHC (3 h) was 36.1%, the MCV (3 h) was 60.2 fL and the Mono (3 h) was 3%. The Neu (3 h) was 21.6%, the PT (3 h) was 11.9 s and the Plat (3 h) was 113.7 x10_4/uL. For the same compound, the RBC (3 h) was 623.8 x10_4/ul, the Ret (3 h) was 7.9% and the WBC (3 h) was 110.8 x10_2/uL. The KIDNEY_L (3 h) was 1.1 g, the KIDNEY_R (3 h) was 1 g and the KIDNEY_TOTAL (3 h) was 2.1 g. It also gave an LIVER (3 h) of 10.2 g, an A/G (3 h) of 1.6 and an ALP (3 h) of 939.8 IU/L. The ALT (3 h) was 38.4 IU/L, the AST (3 h) was 73.4 IU/L and the BUN (3 h) was 10.8 mg/dL. It also gave a CRE (3 h) of 0.4 mg/dL, a Ca (3 h) of 10.6 mg/dL and a Cl (3 h) of 103.4 meq/L. For the same compound, the DBIL (3 h) was 0.068 mg/dL, the GLC (3 h) was 203.2 mg/dL and the IP (3 h) was 9.4 mg/dL. For the same compound, the K (3 h) was 4.2 meq/L, the LDH (3 h) was 162.6 IU/L and the Na (3 h) was 141.6 meq/L. It also gave a PL (3 h) of 140.4 mg/dL, an RALB (3 h) of 3.3 g/dL and a TBIL (3 h) of 0.1 mg/dL. The TC (3 h) was 78 mg/dL, the TG (3 h) was 55 mg/dL and the TP (3 h) was 5.3 g/dL. For the same compound, the gamma-GTP (3 h) was 0.8 IU/L, the TERMINAL_BW (6 h) was 218.3 g and the APTT (6 h) was 19 s. It also gave a Bas (6 h) of 0.2%, an Eos (6 h) of 1% and a Fbg (6 h) of 227.8 mg/dL. The Hb (6 h) was 14 g/dL, the Ht (6 h) was 39.1% and the Lym (6 h) was 73.6%. For the same compound, the MCH (6 h) was 21.4 pg, the MCHC (6 h) was 35.9% and the MCV (6 h) was 59.5 fL. For the same compound, the Mono (6 h) was 3.2%, the Neu (6 h) was 21.4% and the PT (6 h) was 12.2 s. The Plat (6 h) was 119.4 x10_4/uL, the RBC (6 h) was 656.8 x10_4/ul and the Ret (6 h) was 8.1%. The WBC (6 h) was 105 x10_2/uL, the KIDNEY_L (6 h) was 1 g and the KIDNEY_R (6 h) was 1 g. For the same compound, the KIDNEY_TOTAL (6 h) was 2 g, the LIVER (6 h) was 9.6 g and the A/G (6 h) was 1.6. It also gave an ALP (6 h) of 907.4 IU/L, an ALT (6 h) of 34.4 IU/L and an AST (6 h) of 70.2 IU/L. For the same compound, the BUN (6 h) was 9.8 mg/dL, the CRE (6 h) was 0.4 mg/dL and the Ca (6 h) was 10.8 mg/dL. It also gave a Cl (6 h) of 103.8 meq/L, a DBIL (6 h) of 0.074 mg/dL and a GLC (6 h) of 193.2 mg/dL. For the same compound, the IP (6 h) was 9.3 mg/dL, the K (6 h) was 4 meq/L and the LDH (6 h) was 167.6 IU/L. For the same compound, the Na (6 h) was 142 meq/L, the PL (6 h) was 135.6 mg/dL and the RALB (6 h) was 3.3 g/dL. It also gave a TBIL (6 h) of 0.1 mg/dL, a TC (6 h) of 73.8 mg/dL and a TG (6 h) of 65.4 mg/dL. It also gave a TP (6 h) of 5.4 g/dL and a gamma-GTP (6 h) of 1 IU/L.
